# Measured values published in PubChem BioAssay (NCI).
#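 1) Cells in 96-well plates. 2) Compound, 48 h, 5 concentrations. 3) Linear interpolation between surrounding doses. 4) Unreached endpoint = highest concentration. TGI marks complete inhibition of growth.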 Where a SMILES comes first, the peptide text is derived from it. [ ]: non-standard residue; d: D form. The star is where a group is joined. ξ: configuration not given here. NMeF = CN[CH](Cc1ccccc1)C(=O)O; ξNMe2Val = CC(C)C(C(=O)*)N(C)C; NMeV = CN[CH](C(=O)O)C(C)C; OtBu = CC(C)(C)O*
# What was measured:
# Assay in all cases: NCI-60 cell line screen, 48 h
# IGROV1 ovarian = test system: IGROV1 ovarian
# A549 NSCLC = test system: A549 NSCLC
# DU-145 prostate = test system: DU-145 prostate
# SF-295 CNS = test system: SF-295 CNS
# SK-OV-3 ovarian = test system: SK-OV-3 ovarian
# CAKI-1 renal = test system: CAKI-1 renal
# HCT-15 colon = test system: HCT-15 colon
# HL-60(TB) leukemia = test system: HL-60(TB) leukemia
# RPMI-8226 leukemia = test system: RPMI-8226 leukemia
# CCRF-CEM leukemia = test system: CCRF-CEM leukemia
Compound,TGI (IGROV1 ovarian) [µM],TGI (A549 NSCLC) [µM],TGI (DU-145 prostate) [µM],TGI (SF-295 CNS) [µM],TGI (SK-OV-3 ovarian) [µM],TGI (CAKI-1 renal) [µM],TGI (HCT-15 colon) [µM],TGI (HL-60(TB) leukemia) [µM],TGI (RPMI-8226 leukemia) [µM],TGI (CCRF-CEM leukemia) [µM]
O=c1[nH]cnc2c1cnn2Cc1cnnn1COCCO,> 100,> 100,> 100,> 100,> 100,> 100,> 100,> 100,–,–
Cc1nc2ccc(NC3OCC(O)C(O)C3O)cc2c(=O)n1-c1ccccc1 (stereo unspecified),> 100,–,> 100,> 100,–,> 100,> 100,> 100,> 100,–
CC(C)C(C(=O)N(C)C(Cc1ccccc1)C(=O)N(C)C(C(=O)N(C)C(C(=O)N1CCCC1C(=O)OC(C)(C)C)C(C)C)C(C)C)N(C)C (stereo unspecified) (ξNMe2Val-[NMeF][NMeV][NMeV]P-OtBu; configuration not given here),> 100,> 100,–,> 100,–,–,> 100,94.7,> 100,> 100
Cc1nn2c(c1C#N)NNc1c-2sc(=N)nnc1=O,> 100,> 100,–,> 100,> 100,> 100,–,> 100,> 100,> 100
O=C1c2cccnc2-c2nccc3c2c1nc1ccccc13,1.33,0.739,0.962,0.194,1.19,0.467,0.202,–,1.17,10.2
Cc1ccc(S(=O)(=O)N(CCNC(=O)c2cccc(O)c2O)c2cc3c4c(c2)Oc2cccc5c2C4(C)c2c(cccc2O3)O5)cc1,> 100,> 100,> 100,> 100,> 100,> 100,> 100,–,> 100,–
CCSc1nc(N/N=C/c2cccs2)c2cnn(CO)c2n1,10.7,24.1,24.3,29.8,29.4,13.7,15.7,42.1,–,–
CN(C)CCC[N+]1=Nc2cccc3cccc(c23)N1,> 100,> 100,–,> 100,> 100,> 100,> 100,47.5,47.3,80.8
O=c1/c(=C/c2ccccn2)sc2nc3cc4c(cc3n12)OCCO4,> 100,> 100,> 100,> 100,> 100,> 100,> 100,–,> 100,> 100
COc1ccc(N2C(=O)/C(=C/c3ccc(N(CCC#N)CCC#N)cc3)N=C2c2ccccc2)cc1,> 100,> 100,> 100,> 100,> 100,> 100,> 100,> 100,> 100,–
COC(=O)C(CCC1(C)OCCO1)=[N+]=[N-],> 100,> 100,–,> 100,> 100,–,> 100,> 100,–,> 100
CC#CCCCC1(C)CCNC1=S (stereo unspecified),–,> 10,> 10,> 10,> 10,–,> 10,> 10,–,> 10
